Paper PMC10574185, “Encapsulation and Biological Activity of Hesperetin Derivatives with HP-β-CD” (Molecules, 2023)
≈ marks a conversion by molar mass, not a printed value. Where “and” joins values, the source holds several entries; their conditions need not be identical. Equal values may be shown once. Read-outs that look alike come from different tables or passages of the source.

What was measured:
[1] = Phase solubility studies with HP-β-CD; assay type: physicochemical; conditions: for solubility at 60 min: thermodynamic from solid
Procedure: The purpose of this part of the study was to determine the solubility of compounds of hesperetin and its Schiff bases (HHSB, HIN, and HTSC) in aqueous solution at different pHs and temperatures, and the effect of their inclusion in modified HP-β-CD on the aqueous solubility of these compounds at different pH values.
The effect of the presence of HP-β-CD at different temperatures (25, 37, and 60 °C) was determined by developing phase solubility diagrams.
In accordance with the methodology described in Section 3.4, excess amounts of each tested substance were added to aqueous solution with increasing concentration of HP-β-CD up to 16 mM, respectively, in 2 mL of 100 mM sodium acetate buffer (pH 3.6), 100 mM sodium phosphate buffer (pH 6.5) or 100 mM sodium borate buffer (pH 8.5).
Phase solubility studies were conducted according to [64] with some modifications. Excess amounts of each tested substance were added to aqueous solution with increasing concentration of HP-β-CD up to 16 mM, in 2 mL of 100 mM sodium acetate buffer (pH 3.6), 100 mM sodium phosphate buffer (pH 6.5), or 100 mM sodium borate buffer (pH 8.5), respectively. The samples were maintained in an ultrasonic bath at various temperatures (25, 37, and 60 °C) for 60 min to reach equilibrium. The aqueous solutions were then filtered through 0.45 µm acetate cellulose (CA) membrane filter and diluted. The tested compound concentration on each clear filtrate was spectrophotometrically determined by measuring at their wavelength maximum.
The complexation constant (Kc) between studied molecules and HP-β-CD was determined by using Equation (1):(1) Kc=slope/S0 (1−slope) where S0 means the water solubility of the studied substance, and “slope” means the slope of the phase solubility diagram.
Complexation efficiency was calculated from the slope of the phase solubility diagram using Equation (2):(2) CE=S0×Kc=slope/1−slope
The CE was also applied to evaluate the molar ratio in solution of tested systems using Equation (3):(3) Compound:HP−β−CD=1:(1+1/CE)

HaCaT cells = assay: MTT cytotoxicity assay on HaCaT keratinocytes; assay type: cell-based, human
Procedure: HaCaT keratinocyte cells were exposed to chemical compounds at nine different concentrations (from 3.9 to 995.6 µg/mL) in four replicates of each concentration for 24 and 48 h.
All compounds were dissolved in sterile DMSO (Merck Life Science, Warsaw, Poland) and were sterile-filtered with 0.22 µm pore size sterile disposable syringe filters.
HaCaT cell line (the normal immortalised human keratinocytes) used in the study derived from the 35th passage (the original material created by Prof. Dr. Petra Boukamp and Dr. Norbert Fusenig) was purchased from Cell Line Service GmbH (Eppelheim, Germany). The cells were cultured and propagated as described previously.
The cytotoxicity was assessed with MTT assay according to methodology applied previously.
The following final concentrations (in four replicates per experiment) of the test compounds were tested (µg/mL): 3.9; 7.8; 15.6; 31.1; 62.2; 124.5; 248.9; 497.8, and 995.6. […] Three independent experiments were conducted. The vehicle was cells in the culture medium. The assay was conducted for 24 h and 48 h.

[2] = tested on: Escherichia coli ATCC 35218; assay: Minimal inhibition concentration (dilution + diffusion-well); assay type: cell-based; conditions: ATCC35218, 37 °C, 18 h
Procedure: (§1) The MIC was performed for compounds and strains sensitive to their action in the antagonistic test. Minimum inhibitory concentration was determined by combining the dilution method with the diffusion-well method. Test compounds at a concentration of 500 μM were prepared in 5% (w/w) DMSO. Surface layer of microorganisms, against which antagonistic activity was noted, were prepared in the same way as for the antagonistic test. Then, two-fold sequential dilutions of the test compounds in the range of 500 µM to 62.5 µM were prepared. Wells with a diameter of 8 mm cut in the Mueller–Hinton Agar (Merck, Darmstadt, Germany) with the test strain were added with 50 µL of the prepared dilutions, which corresponded to the following concentrations of the tested compounds: […], 1.25 mM, 0.625 mM, and […]. Petri dishes prepared in this way were incubated at 37 °C for 18 h. After a given time, the MIC value was read. The MIC concentration expressed in µM was the first concentration of the tested compounds at which growth inhibition of the test strain was observed.

[3] = tested on: Staphylococcus aureus ATCC 25923; assay: as above; assay type: cell-based; conditions: ATCC25923, 37 °C, 18 h
Procedure: as §1

- CE complexation efficiency ([1]; 25 °C, pH 3.6, with HP-β-CD): 1.4%
- Kc complexation constant ([1]; 25 °C, pH 3.6, with HP-β-CD): 341 ± 79 M⁻¹
- CE complexation efficiency ([1]; 25 °C, pH 6.5, with HP-β-CD): 0.7%
- Kc complexation constant ([1]; 25 °C, pH 6.5, with HP-β-CD): 150 ± 21 M⁻¹
- CE complexation efficiency ([1]; 25 °C, pH 8.5, with HP-β-CD): 0.7%
- Kc complexation constant ([1]; 25 °C, pH 8.5, with HP-β-CD): 150 ± 19 M⁻¹
- CE complexation efficiency ([1]; 37 °C, pH 3.6, with HP-β-CD): 1.1%
- Kc complexation constant ([1]; 37 °C, pH 3.6, with HP-β-CD): 226 ± 92 M⁻¹
- CE complexation efficiency ([1]; 37 °C, pH 6.5, with HP-β-CD): 2.5%
- Kc complexation constant ([1]; 37 °C, pH 6.5, with HP-β-CD): 618 ± 36 M⁻¹
- CE complexation efficiency ([1]; 37 °C, pH 8.5, with HP-β-CD): 0.15%
- Kc complexation constant ([1]; 37 °C, pH 8.5, with HP-β-CD): 100 ± 34 M⁻¹
- CE complexation efficiency ([1]; 60 °C, pH 3.6, with HP-β-CD): 0.9%
- Kc complexation constant ([1]; 60 °C, pH 3.6, with HP-β-CD): 250 ± 20 M⁻¹
- CE complexation efficiency ([1]; 60 °C, pH 6.5, with HP-β-CD): 1.8%
- Kc complexation constant ([1]; 60 °C, pH 6.5, with HP-β-CD): 155 ± 4 M⁻¹
- increase of solubility with HP-β-CD ([1]; 60 °C, pH 8.5): five-fold
- CE complexation efficiency ([1]; 60 °C, pH 8.5, with HP-β-CD): 7%
- Kc complexation constant ([1]; 60 °C, pH 8.5, with HP-β-CD): 728 ± 82 M⁻¹
- solubility at 60 min ([1]; aqueous buffer, 25 °C, pH 3.6 sodium acetate buffer, without cyclodextrin, read-out: solubility without HP-β-CD (value in brackets) (converted)): 18 µM (≈ 7.57 µg/mL)
- solubility at 60 min ([1]; aqueous buffer, 25 °C, pH 6.5 sodium phosphate buffer, without cyclodextrin, read-out: solubility without HP-β-CD (value in brackets) (converted)): 25 µM (≈ 10.5 µg/mL)
- solubility at 60 min ([1]; aqueous buffer, 25 °C, pH 8.5 sodium borate buffer, without cyclodextrin, read-out: solubility without HP-β-CD (value in brackets) (converted)): 25 µM (≈ 10.5 µg/mL)
- solubility at 60 min ([1]; aqueous buffer, 37 °C, pH 3.6 sodium acetate buffer, without cyclodextrin, read-out: solubility without HP-β-CD (value in brackets) (converted)): 20 µM (≈ 8.41 µg/mL)
- solubility at 60 min ([1]; aqueous buffer, 37 °C, pH 6.5 sodium phosphate buffer, without cyclodextrin, read-out: solubility without HP-β-CD (value in brackets) (converted)): 5 µM (≈ 2.1 µg/mL)
- solubility at 60 min ([1]; aqueous buffer, 37 °C, pH 8.5 sodium borate buffer, without cyclodextrin, read-out: solubility without HP-β-CD (value in brackets) (converted)): 5 µM (≈ 2.1 µg/mL)
- solubility at 60 min ([1]; aqueous buffer, 60 °C, pH 3.6 sodium acetate buffer, without cyclodextrin, read-out: solubility without HP-β-CD (value in brackets) (converted)): 12 µM (≈ 5.05 µg/mL)
- solubility at 60 min ([1]; aqueous buffer, 60 °C, pH 6.5 sodium phosphate buffer, without cyclodextrin, read-out: solubility without HP-β-CD (value in brackets) (converted)): 27 µM (≈ 11.4 µg/mL)
- solubility at 60 min ([1]; aqueous buffer, 60 °C, pH 8.5 sodium borate buffer, without cyclodextrin, read-out: solubility without HP-β-CD (value in brackets) (converted)): 18 µM (≈ 7.57 µg/mL)
- solubility at 60 min ([1]; 25 °C, pH 3.6 sodium acetate buffer, with HP-β-CD, read-out: S0 (solubility with HP-β-CD)): 41 ± 21 µM (≈ 17.2 µg/mL)
- solubility at 60 min ([1]; 25 °C, pH 6.5 sodium phosphate buffer, with HP-β-CD, read-out: S0 (solubility with HP-β-CD)): 45 ± 5 µM (≈ 18.9 µg/mL)
- solubility at 60 min ([1]; 25 °C, pH 8.5 sodium borate buffer, with HP-β-CD, read-out: S0 (solubility with HP-β-CD)): 45 ± 5 µM (≈ 18.9 µg/mL)
- solubility at 60 min ([1]; 37 °C, pH 3.6 sodium acetate buffer, with HP-β-CD, read-out: S0 (solubility with HP-β-CD)): 50 ± 10 µM (≈ 21 µg/mL)
- solubility at 60 min ([1]; 37 °C, pH 6.5 sodium phosphate buffer, with HP-β-CD, read-out: S0 (solubility with HP-β-CD)): 41 ± 23 µM (≈ 17.2 µg/mL)
- solubility at 60 min ([1]; 37 °C, pH 8.5 sodium borate buffer, with HP-β-CD, read-out: S0 (solubility with HP-β-CD)): 15 ± 6.1 µM (≈ 6.31 µg/mL)
- solubility at 60 min ([1]; 60 °C, pH 3.6 sodium acetate buffer, with HP-β-CD, read-out: S0 (solubility with HP-β-CD)): 36 ± 14 µM (≈ 15.1 µg/mL)
- solubility at 60 min ([1]; 60 °C, pH 6.5 sodium phosphate buffer, with HP-β-CD, read-out: S0 (solubility with HP-β-CD)): 115 ± 53 µM (≈ 48.3 µg/mL)
- solubility at 60 min ([1]; 60 °C, pH 8.5 sodium borate buffer, with HP-β-CD, read-out: S0 (solubility with HP-β-CD)): 96 ± 42 µM (≈ 40.4 µg/mL)
- MIC [2]: 2.5 µM
- MIC [3]: 2.5 µM
Structure (SMILES): COc1ccc(C2C/C(=N\NC(=O)c3ccccc3)c3c(O)cc(O)cc3O2)cc1O (racemic) [HHSB]
- cytotoxicity at the lowest concentration tested (HaCaT cells; 48 h, 3.9 µg/mL): 54.8% ± 5.4
- cytotoxicity at the highest concentration tested (HaCaT cells; 48 h, 995.6 µg/mL): 79.1% ± 6.6
- IC50 (HaCaT cells; Homo sapiens, MTT, 24 h exposure, read-out: IC50 After 24 h): 418 µg/mL (≈ 993 µM)
- IC70 after 48 h (HaCaT cells; MTT, 48 h exposure, IC50 impossible to count): 163.5 µg/mL and 163.5 ^b µg/mL
